Measured values taken from patent US4959393A, “Skin depigmental agent” (priority 1988, dated 1990).
Where two headings read alike, the source gives them in different places.

What was measured:
[1] = test system: tyrosinase; assay: Measurement of Tyrosine Hydroxylation Activity (formation of dopa from tyrosine); format: biochemical; conditions: L-tyrosine 1×10^-4 M; 200 units mushroom tyrosinase; absorbance at 280 nm; control 1.83
Text: (§1) Tyrosinase is a copper-containing enzyme which controls synthesis of melanin from starting tyrosine. This enzyme is considered to act as a catalyst for the formation of dopa, dopaquinone and indole-5,6-quinone which are, respectively, intermediates for the synthesis of melanin. We measured activities of the resorcinol derivatives of the formula (1) on inhibition of the formation reactions of the former two intermediates, i.e. the formation reaction of dopa (tyrosine hydroxylase) from tyrosine and the formation reaction of dopa quinone (dopa oxidase) from the dopa. From this, the activity on the tyrosinase activity inhibition was determined.
(1) Measurement of Tyrosine Hydroxylation Activity
(§2) The presence or absence of UV absorptions of the substrate and the substance to be detected was confirmed, after which […] of tyrosinase (Mushroom, 200 units, made by Sigma Co., Ltd.) was added for starting the reaction. The variation in absorbance at 280 nm which is a maximum absorption of L-dopa was measured. The tyrosine hydroxylation activity was indicated a nmol dopa/min/mg of protein. The amount of the protein was measured according to Lowry's method.

[2] = test system: tyrosinase; assay: Measurement of Dopa Oxidation Activity (formation of dopa quinone from dopa); format: biochemical, Mushroom; conditions: L-dopa 5×10^-3 M; 10 units tyrosinase; 475 nm; control 15.80
Text: as §1, §2
(2) Measurement of Dopa Oxidation Activity
The general procedure of Measurement (1) was repeated except that L-dopa (5×10^-3 M) was used as a that produced dopa chrome was measured at a wavelength of 475 nm, and that 10 units of tyrosinase were used.
The dopa oxidation activity was indicated as μmol of dopa chrome/min/mg of protein.

[3] = test system: salmonella typhimuria; conditions: Ames test using salmonella typhimuria
[4] = test system: skin; conditions: cited from earlier work
[5] = in vivo; conditions: mouse, ddy male mice
Experimental: The life or death of the mice before 24 hours was observed. The value of LD50 was calculated according to the Litchfield-Wilcoxom method using the above results.

[6] = ip, intraperitoneal, read-out: LD50 i.p.
[7] = po, peroral, read-out: LD50 p.o.
[8] = sc, subcutaneous, read-out: LD50 s.c.

| Activity (tyrosine hydroxylation activity) [1] | Activity (dopa oxidation activity) [2] | SMILES | also measured |
| --- | --- | --- | --- |
| 1.78 nmol dopa/min/mg of protein |  | Cc1ccc(O)cc1O [Comparative Experiment 1, reference compound] |  |
| 0.00 nmol dopa/min/mg of protein |  | CCCCc1ccc(O)cc1O [Experiment 2] |  |
| 0.00 nmol dopa/min/mg of protein |  | CCCCCCCCc1ccc(O)cc1O [Experiment 5] |  |
| 0.33 nmol dopa/min/mg of protein |  | CCCCCCCCCCCCc1ccc(O)cc1O [Experiment 6] |  |
|  | 7.44 μmol of dopa chrome/min/mg of | CCc1ccc(O)cc1O [Experiment 7] |  |
|  | 0.00 μmol of dopa chrome/min/mg of | CCCCc1ccc(O)cc1O [Experiment 8] |  |
|  | 0.00 μmol of dopa chrome/min/mg of | CCCCCCCCc1ccc(O)cc1O [Experiment 11] |  |
|  | 7.19 μmol of dopa chrome/min/mg of | CCCCCCCCCCCCc1ccc(O)cc1O [Experiment 12] |  |
|  |  | CC(C)CCc1ccc(O)cc1O [Isoamyl resorcinol, 4-Isoamyl resorcinol] | variability (Ames test) [3]: no variability |
|  |  | N[C@@H](CS)C(=O)O [cysteine] | depigmental effect [4]: do not exhibit a satisfactory depigmental effect since the development of the effect is very slow |
| 0.00 nmol dopa/min/mg of protein |  | CCc1ccc(O)cc1O [drawing 2] |  |
|  | 16.81 μmol of dopa chrome/min/mg of | Cc1ccc(O)cc1O [drawing 15, reference compound] |  |
|  |  | CCCCCCc1ccc(O)cc1O [drawing 16] | LD50 at 24 h [5, 6]: 335 mg/kg; LD50 at 24 h [5, 7]: > 500 mg/kg; LD50 at 24 h [5, 8]: > 500 mg/kg |
|  |  | CC(C)CCc1ccc(O)cc1O [drawing 17] | LD50 at 24 h [5, 6]: 269 mg/kg; LD50 at 24 h [5, 7]: > 500 mg/kg; LD50 at 24 h [5, 8]: > 500 mg/kg |
|  |  | N[C@@H](CCC(=O)N[C@@H](CS)C(=O)NCC(=O)O)C(=O)O [glutathione] | depigmental effect [4]: do not exhibit a satisfactory depigmental effect since the development of the effect is very slow |

| SMILES | Activity (tyrosine hydroxylation activity) [1] | Activity (dopa oxidation activity) [2] | also measured |
| --- | --- | --- | --- |
| CC(C)CCc1ccc(O)cc1O [Experiment 3] | 0.00 nmol dopa/min/mg of protein |  |  |
| CCCCCCc1ccc(O)cc1O [Experiment 4] | 0.00 nmol dopa/min/mg of protein |  |  |
| CC(C)CCc1ccc(O)cc1O [Experiment 9] |  | 0.00 μmol of dopa chrome/min/mg of |  |
| CCCCCCc1ccc(O)cc1O [Experiment 10] |  | 0.00 μmol of dopa chrome/min/mg of |  |
| Oc1ccc(O)cc1 [hydroquinone, reference compound] | 0.00 nmol dopa/min/mg of protein | 26.94 μmol of dopa chrome/min/mg of |  |
